We go through 1 compound from patent US20080027088A1, “Imidazole-Based Hmg-Coa Reductase Inhibitors” (Warner-Lambert Company, LLC, priority 2004, published 2008).

Test [1] deals with ApoE KO mice fed a Western diet. The test can be described thus: Sphingomyelin in liver, plasma and aorta by LC/MS, 12 weeks. The test is classed as in vivo. As to conditions: 0.3 mg/kg/day. From the text:
Analysis of Sphingolipids and Phospholipids by LC/MS and HPLC-Total lipids were extracted by the modified method of Bligh-Dyer extraction (E. G. Bligh and W. J. Dyer, Can. J. Med. Sci. 1959;37:911-917; and D. K. Perry, A. Bielawska and Y. A. Hannun, Methods Enzymol. 2000;312:22-31). A Micromass (Waters Corp., Milford, Mass.) Quattro Ultima tandem quadrupole mass spectrometer with a standard Z-sprayTM ion source, set to electrospray positive ionization mode, with MassLynxTM version 3.5 operating software, was used for all quantitative determinations. Source conditions were typically as follows: capillary 3.5 kV, source temperature 110 degrees C., and desolvation temperature 325 degrees C. Multipliers were set to 650 V, and the dwell time for each analyte was 100 milliseconds. Precursor-to-product ion transitions were established through direct infusion of each compound into the mass spectrometer. The following ion transitions were used for quantification: sphingomyelin (704→184 m/z), sphinganine (302→284 m/z), ceramide (566→264 m/z) and psychosine (462→282 m/z) as an internal standard. For the instrument, at a collision cell pressure of 2×10^-3 mbar argon, cone and collision voltages were as follows: sphingomyelin (45V, 25 eV), sphinganine (45V, 15 eV), ceramide (45V, 25 eV) and psychosine (45V, 25 eV). The liquid chromatography system was composed of twin Shimadzu (Columbia, Md.) LC-10ADvp HPLC pumps with a SCL-10Avp controller (flow rate 0.2 mL/minute), and a LEAP Technologies (Carrboro, N.C.) CTC PAL autosampler. For the quantitative method, the analytical column was a Phenomenex (Torrance, Calif.) Polar-RP (2.0×150 mm, 4 μm) with a […] (Torrance, Calif.) MetaGuard Polaris C8 2.0 mm direct connect (5 μm) guard column. […] Lipid extracts were analyzed by HPLC and evaporative light scattering detector to determine plasma sphingomyelin and phosphatidylcholine (PC) levels (R. Homan and M.K. Anderson, J. Chromatogr. B. Biomed. Sci. Appl. 1998;708:21-6). […] Sphingomyelin levels in liver (A), plasma (B), and aorta (C) were determined by LC/MS. […]

The test system is the same in test [2]. Put plainly: Plasma SM/PC ratio (HPLC) and ceramide (LC/MS/MS), 12 weeks. The class given is in vivo. As to conditions: 0.3 mg/kg/day. From the text:
Analysis of Sphingolipids and Phospholipids by LC/MS and HPLC-Total lipids were extracted by the modified method of Bligh-Dyer extraction (E. G. Bligh and W. J. Dyer, Can. J. Med. Sci. 1959;37:911-917; and D. K. Perry, A. Bielawska and Y. A. Hannun, Methods Enzymol. 2000;312:22-31). A Micromass (Waters Corp., Milford, Mass.) Quattro Ultima tandem quadrupole mass spectrometer with a standard Z-sprayTM ion source, set to electrospray positive ionization mode, with MassLynxTM version 3.5 operating software, was used for all quantitative determinations. Source conditions were typically as follows: capillary 3.5 kV, source temperature 110 degrees C., and desolvation temperature 325 degrees C. […] The following ion transitions were used for quantification: sphingomyelin (704→184 m/z), sphinganine (302→284 m/z), ceramide (566→264 m/z) and psychosine (462→282 m/z) as an internal standard. […] For the quantitative method, the analytical column was a Phenomenex (Torrance, Calif.) Polar-RP (2.0×150 mm, 4 μm) with a […] […] Lipid extracts were analyzed by HPLC and evaporative light scattering detector to determine plasma sphingomyelin and phosphatidylcholine (PC) levels (R. Homan and M.K. Anderson, J. Chromatogr. B. Biomed. Sci. Appl. 1998;708:21-6). […] Plasma concentrations of SM and PC were determined, and SM/PC ratio (FIG. 13A) was calculated using HPLC. […]

Consider `CCCCCCC(=O)CCCCCC/C=C/C[C@@H](O)[C@H](O)[C@@](N)(CO)C(=O)O` [myriocin], for which the “aorta SM levels decreased” value in test [1] is on record as 20%. Also, the “plasma SM lowered” value in test [1] (Western diet-fed ApoE KO mice) amounted to 64%. Moreover, in test [1] (vs Western diet-fed ApoE KO mice), the “SM accumulation in liver” value was “lowered”. Also, the “plasma ceramide levels reduced” value in test [2] was 60%. Further, the “effect on plasma SM/PC ratio” value in test [2] (vs Western diet-fed group) was “did not affect”.
